Laboratory results from the supplement of paper PMC10307832.

Legend:
Test in all cases: relative viability (nuclei count vs DMSO), 5 days (fraction); higher = more cells survive
[1] = compound: C1=CC2=C(C=C(C(=C2N=C1)O)N=NC3=CC4=C(C=C3)C=C(C=C4)S(=O)(=O)O)S(=O)(=O)O + CC(C)C[C@H](NC(=O)[C@H](Cc1ccccc1)NC(=O)c1cnccn1)B(O)O [Bortezomib] (partner 0.002 µM)
Summary of the method: (§1)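 Values are medians from duplicate plates. Each reflects relative viability, defined as the nuclei count of treated wells over that of vehicle wells. Lung cancer cell lines in 1536-well plates were pin-tool dosed one day after seeding with one drug alone or with a fixed anchor-drug dose plus five library-drug doses (not always all listed) in √10 steps, then fixed, stained and imaged at 4× after 5 days.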

[2] = compound: C1=CC2=C(C=C(C(=C2N=C1)O)N=NC3=CC4=C(C=C3)C=C(C=C4)S(=O)(=O)O)S(=O)(=O)O + Cc1nc(Nc2ncc(C(=O)Nc3c(C)cccc3Cl)s2)cc(N2CCN(CCO)CC2)n1 [Dasatinib] (partner 0.075 µM)
Summary of the method: as §1

[3] = compound: O=C(NC1CCNCC1)c1n[nH]cc1NC(=O)c1c(Cl)cccc1Cl [AT-7519] + CC(=O)Nc1cccc(-n2c(=O)n(C3CC3)c(=O)c3c(Nc4ccc(I)cc4F)n(C)c(=O)c(C)c32)c1 [Trametinib] (partner 0.02 µM)
Summary of the method: as §1

[4] = compound: O=C(NC1CCNCC1)c1n[nH]cc1NC(=O)c1c(Cl)cccc1Cl [AT-7519] + COc1cc2c(Oc3ccc(NC(=O)C4(C(=O)Nc5ccc(F)cc5)CC4)cc3F)ccnc2cc1OCCCN1CCOCC1 [Foretinib] (partner 0.25 µM)
Summary of the method: as §1

Cell Line	relative viability ([1]; first compound 0.08 µM)	relative viability ([1]; first compound 0.253 µM)	relative viability ([1]; first compound 0.8 µM)	relative viability ([1]; first compound 2.53 µM)	relative viability ([1]; first compound 8 µM)	relative viability ([2]; first compound 0.08 µM)	relative viability ([2]; first compound 0.253 µM)	relative viability ([2]; first compound 0.8 µM)	relative viability ([2]; first compound 2.53 µM)	relative viability ([2]; first compound 8 µM)	relative viability ([3]; first compound 0.01 µM)	relative viability ([3]; first compound 0.03162 µM)	relative viability ([3]; first compound 0.3162 µM)	relative viability ([3]; first compound 1 µM)	relative viability ([4]; first compound 0.01 µM)	relative viability ([4]; first compound 0.03162 µM)	relative viability ([4]; first compound 0.3162 µM)	relative viability ([4]; first compound 1 µM)
HCC-15	1.16	1.02	1.02	0.985	0.992	0.684	0.551	0.609	0.584	0.624	0.404	0.371	0.374	0.24	1.11	0.941	0.914	0.403
LCLC-103H	1.14	1.14	1.12	1.15	1.02	0.537	0.461	0.505	0.458	0.48	0.686	0.682	0.72	0.587	0.773	0.704	0.879	0.677
NCI-H441	0.576	0.385		0.484	0.718	0.574	0.587	0.568	0.59	0.679	0.429	0.474	0.32	0.23	1.04	1.01	0.949	0.63
EPLC-272H	0.895	0.917	0.935	0.924	0.902	0.408	0.313	0.333	0.366	0.418	0.309	0.312	0.275	0.22	0.753	0.512	0.622	0.28
